Converted amounts (≈) assume the structure as drawn.
How the values were obtained:
[1] = tested on: Mycobacterium tuberculosis; test: Minimum inhibitory concentration against Mycobacterium tuberculosis H37Rv pFPCA1 in green fluorescent protein microplate assay; assay type: functional
Vero [2] = test: Selectivity ratio for IC50 of VERO cells to that of MIC of Mycobacterium tuberculosis H37Rv; assay type: functional, Chlorocebus sabaeus
Vero [3] = test: Inhibitory concentration required to produce cytotoxicity against VERO cells; assay type: functional, cell-based; settings: Chlorocebus sabaeus
Vero [4] = test: Inhibitory concentration required to produce cytotoxicity against VERO cells; d = Poor solubility prevented determination of activity; assay type: functional, cell-based, Chlorocebus sabaeus
Vero [5] = test: Selectivity ratio for IC50 of VERO cells to that of MIC of Mycobacterium tuberculosis H37Rv; d = Poor solubility prevented determination of activity; assay type: functional, cell-based; settings: Chlorocebus sabaeus
[6] = tested on: Mycobacterium tuberculosis; test: Minimum inhibitory concentration against Mycobacterium tuberculosis H37Rv; Range 0.125-0.25 ug/mL; assay type: functional

SMILES | MIC [1] | Selectivity (Vero [2]) | IC50 (Vero [3]) | IC50 (Vero [4]) | Selectivity (Vero [5]) | MIC [6]
O=C(O)c1cn(C2CC2)c2cc(N3CCNCC3)c(F)cc2c1=O [CIPROFLOXACIN] | < 0.2 µg/mL | – | – | – | – | –
CC[C@@H](CO)NCCN[C@@H](CC)CO [ETHAMBUTOL] | < 0.2 µg/mL | – | – | – | – | –
CN(C)/C=C/c1c2c(nc3ccccc13)C(=O)c1ccccc1C2=O | 0.39 µg/mL (≈ 1.19 µM) | 15.1 | 5.9 µg/mL (≈ 18 µM) | – | – | –
C=C(C=O)c1c2c(nc3ccccc13)C(=O)c1ccccc1C2=O | 0.2 µg/mL (≈ 0.638 µM) | – | – | Poor solubility | Poor solubility | –
Cc1c2c(nc3ccccc13)C(=O)c1ccccc1C2=O | 1.56 µg/mL (≈ 5.71 µM) | – | – | Poor solubility | Poor solubility | –
Cc1c2c(nc3ccccc13)C(=O)c1cccnc1C2=O | 6.25 µg/mL (≈ 22.8 µM) | – | – | Poor solubility | Poor solubility | –
CN(C)/C=C/c1ccnc2c1C(=O)c1ccccc1C2=O | 1.56 µg/mL (≈ 5.61 µM) | 5.8 | 9.1 µg/mL (≈ 32.7 µM) | – | – | –
CN(C)/C=C/c1cccc2nc3ccccc3cc12 | 21 µg/mL (≈ 84.6 µM) | – | – | – | – | –
O=C1c2cccnc2-c2nccc3c2c1nc1ccccc13 [ASCIDIDEMIN] | 0.1 µg/mL (≈ 0.353 µM) | <0.4 | < 0.04 µg/mL | – | – | –
NC[C@H]1O[C@H](O[C@H]2[C@H](O)[C@@H](O[C@H]3O[C@H](CO)[C@@H](O)[C@H](N)[C@H]3O)[C@H](N)C[C@@H]2N)[C@H](O)[C@@H](O)[C@@H]1O [KANAMYCIN] | < 0.2 µg/mL | – | – | – | – | –
NNC(=O)c1ccncc1 [ISONIAZID] | < 0.2 µg/mL | – | – | – | – | –
CN(C)CCc1c2c(nc3ccccc13)C(=O)c1cccnc1C2=O | 3.13 µg/mL (≈ 9.45 µM) | 0.45 | 1.4 µg/mL (≈ 4.22 µM) | – | – | –
CN(C)/C=C/c1c2c(nc3ccccc13)C(=O)c1cccnc1C2=O | 3.13 µg/mL (≈ 9.5 µM) | <0.08 | < 0.26 µg/mL | – | – | –
CO[C@H]1/C=C/O[C@@]2(C)Oc3c(C)c(O)c4c(O)c(c(/C=N/N5CCN(C)CC5)c(O)c4c3C2=O)NC(=O)/C(C)=C\C=C\[C@H](C)[C@H](O)[C@@H](C)[C@@H](O)[C@@H](C)[C@H](OC(C)=O)[C@@H]1C [RIFAMPIN] | – | 400 | 100 µg/mL (≈ 122 µM) | – | – | 0.25 µg/mL (≈ 0.304 µM)
CN(C)CCc1c2c(nc3ccccc13)C(=O)c1ccccc1C2=O | 0.78 µg/mL (≈ 2.36 µM) | 4.5 | 3.5 µg/mL (≈ 10.6 µM) | – | – | –

Reference: ChEMBL document CHEMBL1142818, “Identification of heteroarylenamines as a new class of antituberculosis lead molecules” (Bioorg Med Chem Lett, 2005)
